Results published in US20150164899A1, “INHIBITION OF ADAPTOR ASSOCIATED KINASE 1 FOR THE TREATMENT OF PAIN” (priority 2012, published 2015).
Where two headings read alike, the source gives them in different places.

What was measured:
[1] = target: T1, AAK1 (full-length human protein) (Homo sapiens, UniProt Q2M2I8); experiment: P81 filter plate assay; type: biochemical
T1 construct: NP_055726.2
Protocol: Compounds were serially diluted into a Labcyte LDV plate (Labcyte, cat# LP-0200) using a Mutiprobe (PerkinElmer) and Biomek FX (Beckman Coulter) so that the highest compound concentration was at 96 μM. Compounds were then pinged (75 nL per well) into a Greiner 384-well reaction plate (Greiner, #781076) using an ECHO 550 Liquid Handler (Labcyte). A total of 12 μl reaction buffer (IMAP buffer containing Tween and DTT, from Molecular Devices) was then added to each well of columns 1 and 13 for the negative controls and 12 μl of 2×AAK1 (0.2 nM full-length human protein, NCBI accession no. NP_055726.2) was added to the remaining wells. Enzyme was then pre-incubated with compound for 10 minutes at RT. Reactions were initiated upon Minitrak (PerkinElmer) addition of 12 μl substrate mix containing 2× Mu2 (0.2 μM, full length human protein), 2× cold ATP (2 μM), and 1.3 μCi of hot ^33P-ATP. Reactions proceeded for one hour at RT. Meanwhile, Millipore 384-well P81 filter plates (Millipore, catalog # MZPHN0W10) were placed on a plate washer (Zoom Z W, from Titertek) and pre-wet with 50 μl 1% phosphoric acid. Kinase reactions were then stopped upon addition of 24 μl of 2% phosphoric acid to each well and the Minitrak was then used to transfer 40 μl from each well into the pre-wet Millipore 384-well P81 filter plates. Reaction mixtures were incubated for 10 minutes at RT in the P81 plates, followed by washing five times with 100 μl/well of 1% phosphoric acid using the Zoom filter washer. The bottom of each filter plate was sealed followed by addition of 20 μl Microscint 40 to each well, sealing the top of the plates with Flashplate cover, and then waiting one hour until reading on the TopCount (PerkinElmer).

[2] = target: T2, AAK1 (full length human) in transfected HEK293F cells (Homo sapiens, UniProt Q2M2I8); experiment: HEK281 cell-based assay (phospho-mu2 Western blot); settings: HEK281 cell-based assay, read-out: CBA IC50
T2 construct: expressed in transfected cells; host or cells: HEK293F
Protocol: HEK293F cells were cultured in media containing DMEM (Gibco, cat. #11965), 10% FBS (SAFC Biosciences, cat. #12103C), 1×GPS (glutamine, penicillin and streptomycin). On day one, cells were plated on a 10 cm dish so that they are ˜80% confluent at time of transfection. Roughly 12 million cells were in a 10 cm dish at time of transfection. On day two, each dish was transfected with 48 ug DNA and 144 ul Lipofectamine 2000 (Invitrogen, cat.#11668-019). The DNA was comprised of a mixture (per 10 cm dish) containing 3 ug AAK1/HA/pIRES (full length human, NCBI accession no. NP_055726.2), 45 μg Flag/AP2MI/pcDNA (full length human), and 1.5 ml OPTI-MEM. The Lipofectamine 2000 is made up of a mixture (per 10 cm dish) containing 144 μl Lipofectamine 2000 and 1.5 ml OPTI-MEM. Each mixture was transferred to individual 15 ml tubes and incubated at RT for 5 minutes, and then the two mixes were combined and incubated at RT for 20 minutes. Growth media was then aspirated from each 10 cm plate and replaced with 10 ml of DMEM+10% FBS (no GPS). Finally, 3 ml DNA/Lipofectamine mix was added to each 10 cm dish and mix gently followed by incubate of plate overnight at 37° C. and 5% CO2.
On day three, compounds were diluted in 100% DMSO at 1000× final concentration, followed by 3-fold serial dilutions for a total of 5 concentrations tested. Four compounds were tested per 10 cm dish. One ul of each compound dilution was then pipetted into a deep-well, 96-well plate, followed by addition of 500 μl DMEM+0.5% FBS into each well for a 2× final concentration of each compound. Cells were resuspended in a 10 cm dish by simple pipetting (HEK293 cells come off the plate that easy at this point) and then transferred to a 50 ml conical tube and pelleted by centrifugation at 1000 rpm for 5 min. Cell pellets were then resuspended in 2.75 ml DMEM+0.5% FBS per 10 cm dish and 100 μl of cell suspension transferred into each well of 96-well TC plate. Finally, 100 μl of 2× compound diluted in DMEM+0.5% FBS was then added into wells containing cell suspension for a 1× final concentration. Plates were then incubated at 37° C. and 5% CO2 for 3 hours followed by transferring of cell suspensions from each well into 12-tube PCR strips. The PCR strips were spun in a tip rack at 1000 rpm for 5 minutes to pellet cells and media was then removed by pipetting without disturbing the cell pellet.
To prepare for Western Blot analysis, cell pellets were resuspend in 40 ul 1×LDS-PAGE sample buffer (Invitrogen, cat.# NP0008)+2× Halt phophatase and protease inhibitor cocktail (Thermo Scientific, cat.#1861284), followed by sonicating each with microtip sonicator set at 5 for 8-10 seconds. Five ul of 10× NuPage Sample Reducing Agent (with […]) was to each sample followed by heat denaturing at 70 C. for 10 min on PCR machine. A total of 10 μl per sample was loaded into each lane of a 4-20% Tris-Glycine Criterion 26-well gel (Biorad, cat.#345-0034) for the phospho-mu2 blot and 10 μl per lane in a 4-12% Bis-Tris (+MES buffer) NuPAGE 26-well gel (Invitrogen, cat.# WG1403BX10) for the mu2 blot. For controls, 2 ng of phospho-mu2 or 20 ng mu2/Flag proteins were loaded in the last well of each gel. After SDS-PAGE, samples on each gel were transferred to PVDF membrane using an iBlot and membranes were blocked for one hour in TBST+5% milk, followed by wash 3× for 5-10 min with TBST. Criterion gels were probed with rabbit anti-phospho-mu2 (1:5000; a rabbit polyclonal antibody produced by New England Peptide and affinity purified at Lexicon) in TBST+5% BSA, whereas, NuPAGE gels were probed with mouse anti-Flag (1:500; Sigma, cat.# F1804) in TBST+5% milk, and these primary antibodies were incubated overnight at 4° C. on a rocker.

[3] = pyrazolo[1,5-a]pyrimidine-based inhibitors
[4] = Table 1 imidazo[1,2-b]pyridazines

T2 sequence (Q2M2I8 1-863 isoform Q2M2I8-2): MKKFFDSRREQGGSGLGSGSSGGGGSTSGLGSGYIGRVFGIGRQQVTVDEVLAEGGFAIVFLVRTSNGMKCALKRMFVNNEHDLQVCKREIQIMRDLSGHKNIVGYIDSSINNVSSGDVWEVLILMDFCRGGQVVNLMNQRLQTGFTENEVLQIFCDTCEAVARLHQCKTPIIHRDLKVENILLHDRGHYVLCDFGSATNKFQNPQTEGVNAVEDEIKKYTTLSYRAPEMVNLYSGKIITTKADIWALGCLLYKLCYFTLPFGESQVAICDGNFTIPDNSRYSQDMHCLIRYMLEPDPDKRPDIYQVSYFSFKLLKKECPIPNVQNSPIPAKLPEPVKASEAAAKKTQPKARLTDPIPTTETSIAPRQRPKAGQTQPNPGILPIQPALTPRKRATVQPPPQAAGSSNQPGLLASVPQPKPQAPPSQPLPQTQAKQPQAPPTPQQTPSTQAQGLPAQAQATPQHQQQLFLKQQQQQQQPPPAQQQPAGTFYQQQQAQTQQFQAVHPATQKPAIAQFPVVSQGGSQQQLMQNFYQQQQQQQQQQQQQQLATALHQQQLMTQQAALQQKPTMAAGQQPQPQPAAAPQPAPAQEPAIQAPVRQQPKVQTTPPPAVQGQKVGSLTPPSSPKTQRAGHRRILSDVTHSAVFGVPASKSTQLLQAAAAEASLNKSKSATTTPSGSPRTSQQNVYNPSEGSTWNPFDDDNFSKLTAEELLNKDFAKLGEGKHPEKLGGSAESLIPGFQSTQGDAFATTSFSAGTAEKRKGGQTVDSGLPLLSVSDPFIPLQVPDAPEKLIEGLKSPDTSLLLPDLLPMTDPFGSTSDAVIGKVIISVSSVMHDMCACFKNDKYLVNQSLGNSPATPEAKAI
T1 sequence (Q2M2I8 1-863 isoform Q2M2I8-2): as above

Row | SMILES | IC50 [1, 3] [µM] | IC50 [2, 3] [µM] | IC50 [2, 4] [µM] | IC50 [1, 4] [µM]
1 | CC(C)Cn1cc(-c2cnn3ccc(N4CCN(C(=O)OC(C)C)CC4)nc23)cn1 | ≤ 0.1 |  |  | 
2 | CC(C)OC(=O)N1CCN(c2ccn3ncc(-c4ccncc4)c3n2)CC1 | ≤ 0.01 | ≤ 0.1 |  | 
3 | CC(C)NC(=O)c1cnn2ccc(N3CCN(C(=O)OC(C)C)CC3)nc12 | ≤ 1 |  |  | 
4 | COc1ccccc1-c1cnn2ccc(NC[C@@H]3CCCN3C(=O)CC(F)(F)F)nc12 | ≤ 0.01 | ≤ 0.1 |  | 
5 | COc1ncccc1-c1cnn2ccc(N3CCN(C(=O)OC(C)C)CC3=O)nc12 | ≤ 0.01 | ≤ 0.01 |  | 
6 | COc1ccc(-c2cnn3ccc(N4CCN(C(=O)OC(C)C)CC4)nc23)nc1 | ≤ 0.01 | ≤ 0.01 |  | 
7 | CC(C)OC(=O)N1CCN(c2ccn3ncc(-c4cnccc4F)c3n2)CC1 | ≤ 0.1 |  |  | 
8 | CCOc1cccc(-c2cnn3ccc(N4CCN(C(=O)OC(C)C)CC4)nc23)c1 | ≤ 0.01 |  |  | 
9 | CC(C)OC(=O)N1CCN(c2ccn3ncc(-c4cnccn4)c3n2)CC1 | ≤ 0.1 |  |  | 
10 | Cc1cc(-c2cnn3ccc(N4CC[C@H](N(C)C(=O)OC(C)(C)C)C4)nc23)ccn1 | ≤ 0.01 | ≤ 0.1 |  | 
11 | CCCC(=O)N(C)[C@H]1CCN(c2ccn3ncc(-c4cccnc4OC)c3n2)C1 | ≤ 0.01 | ≤ 1 |  | 
12 | COc1ccc(-c2cnn3ccc(N4CCN(C(=O)OC(C)C)CC4)nc23)cn1 | ≤ 0.01 | ≤ 1 |  | 
13 | CC(C)OC(=O)N(C)[C@H]1CCN(c2ccn3ncc(-c4ccncc4)c3n2)C1 | ≤ 0.1 |  |  | 
14 | CCOC(=O)c1cnn2ccc(N3CCN(C(=O)OC(C)C)CC3)nc12 | ≤ 0.1 |  |  | 
15 | CNC(=O)c1cnn2ccc(N3CCN(C(=O)OC(C)C)CC3)nc12 | ≤ 0.1 |  |  | 
16 | CCCC(=O)N(C)[C@H]1CCN(c2ccn3ncc(-c4ccccc4OC)c3n2)C1 | ≤ 0.01 | ≤ 1 |  | 
17 | COc1ccccc1-c1cnc2ccc(NC[C@@H]3CCC(=O)N3CCC(C)(C)C)nn12 |  |  | ≤ 1 | ≤ 0.01
18 | CCOC(=O)N1CCN(c2ccn3ncc(-c4cccnc4OC)c3n2)CC1 | ≤ 0.01 | ≤ 0.1 |  | 
19 | CC(C)OC(=O)N1CCN(c2ccn3ncc(-c4cncnc4)c3n2)CC1 | ≤ 0.1 |  |  | 
20 | COc1ccnc(-c2cnn3ccc(N4CCN(C(=O)OC(C)C)CC4)nc23)c1 | ≤ 0.01 |  |  | 
21 | COc1ncccc1-c1cnn2ccc(N3CCN(C(=O)OC(C)C)C(C)(C)C3)nc12 | ≤ 0.1 |  |  | 
22 | CC(C)OC(=O)N1CCN(c2ccn3ncc(C(C)C)c3n2)CC1 | ≤ 0.1 |  |  | 
23 | COc1ccccc1-c1cnn2ccc(NC[C@@H]3CCCN3C(=O)CC(C)(C)C)nc12 | ≤ 0.01 | ≤ 0.01 |  | 
24 | CC(C)(C)CCN1C(=O)CC[C@H]1CNc1ccn2ncc(Br)c2n1 | ≤ 0.01 | ≤ 0.1 |  | 
25 | COc1ccc(-c2cnn3ccc(N4CCN(C(=O)OC(C)C)CC4)nc23)c(OC)n1 | ≤ 0.01 | ≤ 0.01 |  | 
26 | CC(C)OC(=O)N1CCN(c2ccn3nccc3n2)CC1 | ≤ 0.01 |  |  | 
27 | CN(C(=O)N1CCCC1)[C@H]1CCN(c2ccc3ncc(-c4ccccn4)n3n2)C1 |  |  |  | ≤ 0.1
28 | COc1ncccc1-c1cnn2ccc(N3CC[C@H](N(C)C(=O)CC(F)(F)F)C3)nc12 | ≤ 0.01 | ≤ 0.01 |  | 

Row | SMILES | IC50 [1, 3] [µM] | IC50 [2, 3] [µM] | IC50 [2, 4] [µM] | IC50 [1, 4] [µM]
29 | COc1cncc(-c2cnn3ccc(N4CCN(C(=O)OC(C)C)CC4)nc23)c1 | ≤ 0.01 | ≤ 0.1 |  | 
30 | O=C(CC(F)(F)F)N1CCC[C@H]1CNc1ccn2ncc(-c3ccncc3)c2n1 | ≤ 0.01 | ≤ 0.1 |  | 
31 | COc1ncccc1-c1cnn2ccc(N3CCN(S(=O)(=O)CC(C)C)CC3)nc12 | ≤ 0.1 |  |  | 
32 | CCCC(=O)N(C)[C@H]1CCN(c2ccn3ncc(-c4ccccn4)c3n2)C1 | ≤ 1 |  |  | 
33 | FC(F)(F)CN1CCCC1CNc1ccn2ncc(Br)c2n1 (centres unmarked) | ≤ 0.01 | ≤ 0.1 |  | 
34 | CN(C(=O)N1CCCC1)[C@H]1CCN(c2ccn3ncc(Br)c3n2)C1 | ≤ 0.1 |  |  | 
35 | COc1ccccc1-c1cnn2ccc(N3CC[C@H](N(C)C(=O)OC(C)C)C3)nc12 | ≤ 0.1 |  |  | 
36 | COc1ncccc1-c1cnn2ccc(NC[C@@H]3CCC(=O)N3CCC(C)(C)C)nc12 | ≤ 0.01 | ≤ 0.1 |  | 
37 | CC(C)(C)CCN1C(=O)CC[C@H]1CNc1ccn2ncc(-c3ccccc3)c2n1 | ≤ 0.01 |  |  | 
38 | COc1ncccc1-c1cnn2ccc(N3CCN(C(=O)N4CCCC4)CC3)nc12 | ≤ 0.01 | ≤ 0.1 |  | 
39 | COC(=O)N1CCN(c2ccn3ncc(-c4cccnc4OC)c3n2)CC1 | ≤ 0.1 | ≤ 0.1 |  | 
40 | CCOC(=O)N1CCN(c2ccn3ncc(-c4cccnc4OCC)c3n2)CC1 | ≤ 0.01 | ≤ 0.01 |  | 
41 | COc1ccccc1-c1cnn2ccc(N3CC[C@H](N(C)C(=O)CC(F)(F)F)C3)nc12 | ≤ 0.1 |  |  | 
42 | CN(C(=O)CC(C)(C)C)[C@H]1CCN(c2ccc3ncc(-c4cccnc4O)n3n2)C1 |  |  | ≤ 1 | ≤ 0.1
43 | CC(C)(C)OC(=O)N1CCC[C@H]1CNc1ccn2ncc(-c3ccccc3O)c2n1 | ≤ 0.01 | ≤ 0.1 |  | 
44 | Cc1nn(C)c(C)c1-c1cnn2ccc(N3CCN(C(=O)OC(C)C)CC3)nc12 | ≤ 0.1 |  |  | 
45 | COc1ncccc1-c1cnn2ccc(C3=CCN(C(=O)OC(C)C)CC3)nc12 | ≤ 0.01 | ≤ 0.01 |  | 
46 | COc1ncccc1-c1cnn2ccc(NCCCC(F)(F)F)nc12 | ≤ 0.01 | ≤ 0.1 |  | 
47 | CC(C)(C)OC(=O)N1CC=C(c2ccn3nccc3n2)CC1 | ≤ 0.1 |  |  | 
48 | COc1ncccc1-c1cnn2ccc(N(CCCC(F)(F)F)C(C)=O)nc12 | ≤ 1 |  |  | 
49 | CC(C)OC(=O)N1CCN(c2ccn3ncc(-c4cccnc4)c3n2)CC1 | ≤ 0.01 |  |  | 
50 | CN(C(=O)CC1CC1)[C@H]1CCN(c2ccn3ncc(-c4ccccn4)c3n2)C1 | ≤ 0.1 |  |  | 
51 | CCNC(=O)c1cnn2ccc(N3CCN(C(=O)OC(C)C)CC3)nc12 | ≤ 0.1 |  |  | 
52 | COCCOC(=O)N1CCN(c2ccn3ncc(-c4ccccc4OC)c3n2)CC1 | ≤ 0.01 |  |  | 
53 | COc1ncccc1-c1cnn2ccc(N3CC(N(C)C(=O)OC(C)(C)C)C3)nc12 | ≤ 1 |  |  | 
54 | COc1ncccc1-c1cnn2ccc(N3CC(N(C)C(=O)OC(C)C)C3)nc12 | ≤ 0.1 |  |  | 
55 | CN(C(=O)CC(F)(F)F)[C@H]1CCN(c2ccn3ncc(Br)c3n2)C1 | ≤ 0.1 |  |  | 
